In ChEMBL document CHEMBL2074388 (Am J Physiol Renal Physiol, 2001):

Legend:
[1] = target: T1, Solute carrier family 22 member 1 (Rattus norvegicus, UniProt Q63089); assay type: functional, cell-based, Xenopus laevis, Oocyte
T1 sequence (Q63089 whole entry): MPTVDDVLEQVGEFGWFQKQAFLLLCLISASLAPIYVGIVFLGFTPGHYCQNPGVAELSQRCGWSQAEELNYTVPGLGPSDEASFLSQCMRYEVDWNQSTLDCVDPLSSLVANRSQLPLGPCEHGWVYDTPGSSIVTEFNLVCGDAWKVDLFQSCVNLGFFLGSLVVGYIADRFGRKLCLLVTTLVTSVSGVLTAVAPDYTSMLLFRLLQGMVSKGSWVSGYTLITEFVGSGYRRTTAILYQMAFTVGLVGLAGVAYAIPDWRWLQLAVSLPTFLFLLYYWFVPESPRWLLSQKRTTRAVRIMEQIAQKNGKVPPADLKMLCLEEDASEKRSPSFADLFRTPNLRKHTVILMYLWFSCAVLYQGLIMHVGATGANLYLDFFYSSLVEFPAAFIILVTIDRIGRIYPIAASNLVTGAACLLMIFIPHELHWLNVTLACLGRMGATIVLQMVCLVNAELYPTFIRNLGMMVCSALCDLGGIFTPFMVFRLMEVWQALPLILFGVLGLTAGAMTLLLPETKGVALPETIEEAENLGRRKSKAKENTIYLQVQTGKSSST

[2] = target: T2, Solute carrier family 22 member 2 (Rattus norvegicus, UniProt Q9R0W2); assay type: functional, cell-based, Xenopus laevis, Oocyte
T2 sequence (Q9R0W2 whole entry): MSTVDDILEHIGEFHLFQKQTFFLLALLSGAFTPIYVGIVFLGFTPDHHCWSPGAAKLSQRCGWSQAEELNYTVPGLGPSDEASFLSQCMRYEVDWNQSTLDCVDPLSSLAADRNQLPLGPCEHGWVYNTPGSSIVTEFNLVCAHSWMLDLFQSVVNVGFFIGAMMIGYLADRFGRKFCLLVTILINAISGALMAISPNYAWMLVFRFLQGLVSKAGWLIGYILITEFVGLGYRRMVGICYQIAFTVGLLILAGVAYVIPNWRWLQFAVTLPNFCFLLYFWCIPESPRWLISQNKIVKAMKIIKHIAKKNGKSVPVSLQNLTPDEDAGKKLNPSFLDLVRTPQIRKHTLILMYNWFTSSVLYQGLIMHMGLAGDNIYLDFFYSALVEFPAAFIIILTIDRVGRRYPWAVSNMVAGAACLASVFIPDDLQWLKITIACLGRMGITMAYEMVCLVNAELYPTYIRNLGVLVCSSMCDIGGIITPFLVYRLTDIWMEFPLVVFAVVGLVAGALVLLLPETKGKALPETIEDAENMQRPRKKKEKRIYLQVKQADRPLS

[3] = target: T2, Solute carrier family 22 member 2; assay: TP_TRANSPORTER: inhibition of TEA uptake in Xenopus laevis oocytes; assay type: functional, cell-based, Oocyte
[4] = target: T2, Solute carrier family 22 member 2; assay: TP_TRANSPORTER: inhibition of TEA uptake (electrogenicity) in Xenopus laevis oocytes
[5] = substrate: N=C(N)N; assay: (§1) TP_TRANSPORTER: uptake in Xenopus laevis oocytes; assay type: functional, cell-based, Oocyte
[6] = substrate: NCCc1c[nH]cn1; assay: cells, lysate or membranes named
[7] = substrate: CNC(=O)c1cccnc1; assay: as §1; assay type: functional, cell-based, Oocyte
[8] = substrate: C[n+]1ccc(-c2ccccc2)cc1; assay: as §1; assay type: functional, cell-based, Oocyte
[9] = substrate: C[N+](C)(C)CCO; assay: cells, lysate or membranes named
[10] = substrate: CC[N+](CC)(CC)CC; assay: cells, lysate or membranes named

O=C(O)CCC(=O)C(=O)O [ALPHA-KETOGLUTARIC ACID]
IC50 [1]: 740 µM
IC50 [2]: 700 µM

Nc1ccc(C(=O)NCC(=O)O)cc1 [AMINOHIPPURIC ACID]
IC50 [1]: 1300 µM
IC50 [2]: 4500 µM

C[C@]12C[C@H](O)[C@H]3[C@@H](CCC4=CC(=O)CC[C@@]43C)[C@@H]1CC[C@@H]2C(=O)CO [CORTICOSTERONE]
IC50 [1]: 151 µM
IC50 [2]: 4 µM

CC[n+]1c(CC2C=C(C)N=C(c3ccccc3)N2C)ccc2ccccc21 (stereo unspecified) [Cyanine-863]
IC50 [1]: 0.51 µM
IC50 [2]: 2.56 µM

CNCCCN1c2ccccc2CCc2ccccc21 [DESIPRAMINE]
IC50 [2]: 10 µM

N=C(N)N [GUANIDINE]
IC50 [1]: 4470 µM
IC50 [2]: 171 µM

CC(C)C(c1ccccc1)C(O)CC[N+]1(C)CCCCC1 (stereo unspecified) [MEPIPERPHENIDOL BROMIDE]
IC50 [1]: 7.1 µM
IC50 [2]: 474 µM

COc1cc(C(O)CNC(C)C)ccc1O (stereo unspecified) [METIPRENALINE]
IC50 [1]: 37 µM

CCCN(CCC)S(=O)(=O)c1ccc(C(=O)O)cc1 [PROBENECID]
IC50 [1]: 1640 µM
IC50 [2]: 1700 µM

CCN(CC)CCNC(=O)c1ccc(N)cc1 [PROCAINAMIDE]
IC50 [2]: 445 µM

C=C[C@H]1C[N@@]2CC[C@H]1C[C@@H]2[C@@H](O)c1ccnc2ccc(OC)cc12 [QUINIDINE]
IC50 [2]: 14.6 µM

C=C[C@H]1C[N@@]2CC[C@H]1C[C@H]2[C@H](O)c1ccnc2ccc(OC)cc12 [QUININE]
Ki [3]: 55 µM

CCCC[N+](CCCC)(CCCC)CCCC [TETRABUTHYLAMMONIUM]
Ki [4]: 12 µM

C[N+](C)(C)C [TETRAMETHYLAMMONIUM]
IC50 [2]: 630 µM

CCC[N+](CCC)(CCC)CCC [TETRAPROPYLAMMONIUM]
IC50 [1]: 11.3 µM
IC50 [2]: 6.2 µM

B1: Solute carrier family 22 member 1 (Rattus norvegicus) (protein)
chain: T1 sequence (Q63089 whole entry)
Km [5]: 1660 µM
Km [6]: 300 µM

B2: Solute carrier family 22 member 2 (Rattus norvegicus) (protein)
chain: T2 sequence (Q9R0W2 whole entry)
Km [7]: 245 µM
Km [5]: 172 µM
Km [8]: 17 µM
Km [9]: 604 µM
Km [6]: 278 µM
Km [10]: 91 µM
